Reference: patent publication US20230099229A1, “METHODS OF TREATING MULTIPLE SCLEROSIS” (REPRISE PHARMACEUTICALS, INC., priority 2020, published 2023)
Where a name gives a salt, the structure may show the parent alone.

Tested on: Experimental allergic encephalitis (EAE) in female C57BL/6 mice
Assay: EAE model in C57BL/6 mice, daily neurological clinical score (Example 2)
Format: in vivo, mouse
Conditions: C57BL/6 mice treated from clinical score 2 for 28 days; DMF 15 mg/kg BID, GCZ 5 mg/kg BID, alone or combined; compared to vehicle control and single agents
Experimental: Experimental allergic encephalitis (EAE) is induced in female C57BL/6 mice (10 weeks old) by subcutaneous injection in the flank regions (left and right sides) with 200 μl total of an emulsion of MOG35-55 peptide (200 μg in 100 μl phosphate buffered saline plus 100 μl of complete Freund's adjuvant containing […] of heat-inactivated Mycobacterium tuberculosis). Each mouse then receives 200 ng of pertussis toxin intraperitoneally (IP) on the day of immunization (day 0) and then again 48 h later (day 2). Neurological assessments are reported using a five-point standardized rating scale to evaluate motor deficit: 0, no deficit; 1, tail paralysis; 2, unilateral hind limb weakness; 3, incomplete bilateral hind limb paralysis and/or partial forelimb weakness; 4, complete hind limb paralysis and partial forelimb weakness; 5, moribund state or death.
The DMF is prepared as a suspension (15 mg/ml) in 0.8% hydroxypropyl methylcellulose (HPMC) weekly and kept at 4° C. under constant stirring. DMF is diluted into 200 μl HPMC, corresponding to a dose of 15 mg/kg body weight, and is administered twice daily (30 mg/kg/day) by oral gavage through a bulb-tipped curved gastric gavage needle by trained operators.
Experimental allergic encephalitis (EAE) was induced in female C57BL/6 mice as described in Example 1. […]

SMILES	EAE clinical scores (five-point motor deficit scale 0-5), fitted regression curves
COC(=O)/C=C/C(=O)OC [DMF, dimethyl fumarate]	no observed difference
Cc1ccc(S(=O)(=O)NC(=O)NN2CC3CCCC3C2)cc1 (centres unmarked) [GCZ, gliclazide]	no observed difference
